Data taken from PubChem BioAssay AID328 (DTP/NCI, 2004).
Values joined by “and” are separate entries in the source; they are usually repeats but may differ in a detail not shown here. Identical values can stand only once. Inconclusive results and toxic doses are left out.

Test system: BDF1 mice, P388 leukemia ip, median survival T/C
Assay: NCI In Vivo Anticancer Drug Screen. Data for tumor model P388 Leukemia (intraperitoneal) in B6D2F1 (BDF1) mice
Settings: endpoint: median survival time, higher = longer survival
Description: The antitumor activity of compounds was measured in mice bearing transplantable tumors. Survival or tumor size were measured and the results are expressed as the measurement made in the treated group (T) divided by the measurement made in the vehicle treated control group (C). The tumor model used in this assay is P388 Leukemia (intraperitoneal) in B6D2F1 (BDF1) mice

[1] = dose: 50.0 mg/kg/injection, schedule: Q01DX009 (ip), vehicle: saline with Tween-80
[2] = dose: 100.0 mg/kg/injection, schedule: Q01DX009 (ip), vehicle: saline with Tween-80
[3] = dose: 200.0 mg/kg/injection, schedule: Q01DX009 (ip), vehicle: saline with Tween-80
[4] = dose: 50.0 mg/kg/injection, schedule: Q01DX009 (ip), vehicle: Klucel (hydroxypropylcellulose) (HPC)
[5] = dose: 100.0 mg/kg/injection, schedule: Q01DX009 (ip), vehicle: Klucel (hydroxypropylcellulose) (HPC)

With `CCCC(=O)OCc1ccccn1` the T/C [1] was 107 % of control, the T/C [2] was 102 % of control and the T/C [3] was 86 % of control.

With `O=[N+]([O-])c1ccc(N(CCO)CCO)c2c1no[n+]2[O-]` the T/C (dose: 7.5 mg/kg/injection, schedule: Q01DX009 (ip), vehicle: saline with Tween-80) was 112 % of control, the T/C (dose: 15.0 mg/kg/injection, schedule: Q01DX009 (ip), vehicle: saline with Tween-80) was 112 % of control and the T/C (dose: 30.0 mg/kg/injection, schedule: Q01DX009 (ip), vehicle: saline with Tween-80) was 113 % of control. The T/C (dose: 32.0 mg/kg/injection, schedule: Q04DX003 (ip), vehicle: saline with Tween-80) was 160 % of control and the T/C (dose: 64.0 mg/kg/injection, schedule: Q04DX003 (ip), vehicle: saline with Tween-80) was 121 % of control.

In the case of `CCCCCCCCCCCCCC(=O)O[C@@H]1[C@@H](C)[C@@]2(O)[C@@H](C=C(CO)C[C@]3(O)C(=O)C(C)=C[C@@H]23)[C@@H]2C(C)(C)[C@]12OC(C)=O`, the T/C (dose: 0.03 mg/kg/injection, schedule: Q01DX009 (ip), vehicle: Klucel (hydroxypropylcellulose) (HPC)) is reported as 110 % of control, the T/C (dose: 0.03 mg/kg/injection, schedule: Q01DX009 (ip), vehicle: saline + alcohol) is reported as 108 % of control and the T/C (dose: 0.06 mg/kg/injection, schedule: Q01DX009 (ip), vehicle: Klucel (hydroxypropylcellulose) (HPC)) is reported as 100 % of control. For the same compound, the T/C (dose: 0.06 mg/kg/injection, schedule: Q01DX009 (ip), vehicle: saline + alcohol) was 110 % of control, the T/C (dose: 0.12 mg/kg/injection, schedule: Q01DX009 (ip), vehicle: Klucel (hydroxypropylcellulose) (HPC)) was 110 % of control and the T/C (dose: 0.12 mg/kg/injection, schedule: Q01DX009 (ip), vehicle: saline + alcohol) was 117 % of control. For the same compound, the T/C (dose: 0.25 mg/kg/injection, schedule: Q01DX009 (ip), vehicle: Klucel (hydroxypropylcellulose) (HPC)) was 92 % of control, the T/C (dose: 0.25 mg/kg/injection, schedule: Q01DX009 (ip), vehicle: saline + alcohol) was 116 % of control and the T/C (dose: 0.5 mg/kg/injection, schedule: Q01DX009 (ip), vehicle: Klucel (hydroxypropylcellulose) (HPC)) was 100 % of control. For the same compound, the T/C (dose: 0.5 mg/kg/injection, schedule: Q01DX009 (ip), vehicle: saline + alcohol) was 104 % of control, the T/C (dose: 1.0 mg/kg/injection, schedule: Q01DX009 (ip), vehicle: Klucel (hydroxypropylcellulose) (HPC)) was 108 % of control and the T/C (dose: 3.1 micrograms/kg/injection, schedule: Q01DX009 (ip), vehicle: gum acacia) was 97 % of control and 108 % of control. The T/C (dose: 3.1 micrograms/kg/injection, schedule: Q01DX009 (ip), vehicle: saline with Tween-80) was 105 % of control, the T/C (dose: 6.2 micrograms/kg/injection, schedule: Q01DX009 (ip), vehicle: gum acacia) was 94 % of control and the T/C (dose: 6.2 micrograms/kg/injection, schedule: Q01DX009 (ip), vehicle: saline with Tween-80) was 109 % of control. For the same compound, the T/C (dose: 12.5 micrograms/kg/injection, schedule: Q01DX009 (ip), vehicle: gum acacia) was 106 % of control, the T/C (dose: 12.5 micrograms/kg/injection, schedule: Q01DX009 (ip), vehicle: saline with Tween-80) was 104 % of control and the T/C (dose: 25.0 micrograms/kg/injection, schedule: Q01DX009 (ip), vehicle: gum acacia) was 103 % of control and 118 % of control. The T/C (dose: 25.0 micrograms/kg/injection, schedule: Q01DX009 (ip), vehicle: saline with Tween-80) was 109 % of control, the T/C (dose: 50.0 micrograms/kg/injection, schedule: Q01DX009 (ip), vehicle: gum acacia) was 97 % of control and 108 % of control and 116 % of control and the T/C (dose: 50.0 micrograms/kg/injection, schedule: Q01DX009 (ip), vehicle: saline with Tween-80) was 114 % of control. For the same compound, the T/C (dose: 100.0 micrograms/kg/injection, schedule: Q01DX009 (ip), vehicle: gum acacia) was 106 % of control and 108 % of control, the T/C (dose: 100.0 micrograms/kg/injection, schedule: Q01DX009 (ip), vehicle: saline with Tween-80) was 113 % of control and the T/C (dose: 200.0 micrograms/kg/injection, schedule: Q01DX009 (ip), vehicle: gum acacia) was 101 % of control and 103 % of control and 113 % of control. For the same compound, the T/C (dose: 200.0 micrograms/kg/injection, schedule: Q01DX009 (ip), vehicle: saline with Tween-80) was 97 % of control, the T/C (dose: 400.0 micrograms/kg/injection, schedule: Q01DX009 (ip), vehicle: gum acacia) was 103 % of control and the T/C (dose: 400.0 micrograms/kg/injection, schedule: Q01DX009 (ip), vehicle: saline with Tween-80) was 103 % of control. The T/C (dose: 800.0 micrograms/kg/injection, schedule: Q01DX009 (ip), vehicle: gum acacia) was 100 % of control and 106 % of control.

`CCN(CC)c1cc(=S)c2c(ccc3ccccc32)o1` was tested, and the T/C [1] was 100 % of control, the T/C [2] was 106 % of control and the T/C [3] was 103 % of control.

In the case of `CN(C)C(=S)S`, the T/C (dose: 50.0 mg/kg/injection, schedule: Q04DX003 (ip), vehicle: saline) is reported as 103 % of control, the T/C (dose: 100.0 mg/kg/injection, schedule: Q04DX003 (ip), vehicle: saline) is reported as 103 % of control and the T/C (dose: 200.0 mg/kg/injection, schedule: Q04DX003 (ip), vehicle: saline) is reported as 105 % of control. The T/C (dose: 400.0 mg/kg/injection, schedule: Q04DX003 (ip), vehicle: saline) was 117 % of control.

`O=c1[nH]c2cc(Cl)c(Cl)cc2o1` was tested, and the T/C [4] was 115 % of control, the T/C [1] was 104 % of control and the T/C [5] was 115 % of control. For the same compound, the T/C [2] was 100 % of control, the T/C (dose: 100.0 mg/kg/injection, schedule: Q04DX003 (ip), vehicle: saline with Tween-80) was 100 % of control and the T/C (dose: 200.0 mg/kg/injection, schedule: Q01DX009 (ip), vehicle: Klucel (hydroxypropylcellulose) (HPC)) was 110 % of control. For the same compound, the T/C [3] was 104 % of control and the T/C (dose: 200.0 mg/kg/injection, schedule: Q04DX003 (ip), vehicle: saline with Tween-80) was 95 % of control.

For `C[C@]12CCC(=O)C=C1CC[C@@H]1[C@@H]2[C@@H](O)C[C@@]2(C)[C@H]1CC[C@]2(O)C(=O)CO`, the T/C (dose: 6.25 mg/kg/injection, schedule: Q01DX010 (sc), vehicle: steriod suspending solution) was 100 % of control, the T/C (dose: 12.5 mg/kg/injection, schedule: Q01DX010 (sc), vehicle: steriod suspending solution) was 100 % of control and the T/C (dose: 25.0 mg/kg/injection, schedule: Q01DX010 (sc), vehicle: steriod suspending solution) was 110 % of control. The T/C (dose: 50.0 mg/kg/injection, schedule: Q01DX010 (sc), vehicle: steriod suspending solution) was 120 % of control, the T/C (dose: 100.0 mg/kg/injection, schedule: Q01DX010 (sc), vehicle: steriod suspending solution) was 115 % of control and 120 % of control and the T/C (dose: 200.0 mg/kg/injection, schedule: Q01DX010 (sc), vehicle: steriod suspending solution) was 110 % of control.

With `Cc1[nH]c(=O)[nH]c(=O)c1NCCO` the T/C (dose: 50.0 mg/kg/injection, schedule: Q01DX009 (ip), vehicle: water) was 102 % of control, the T/C (dose: 100.0 mg/kg/injection, schedule: Q01DX009 (ip), vehicle: water) was 109 % of control and the T/C (dose: 200.0 mg/kg/injection, schedule: Q01DX009 (ip), vehicle: water) was 105 % of control. For the same compound, the T/C (dose: 400.0 mg/kg/injection, schedule: Q01DX009 (ip), vehicle: water) was 112 % of control.

In the case of `O=C1CCC(=O)N1C1c2ccccc2Oc2ccccc21`, the T/C (dose: 100.0 mg/kg/injection, schedule: Q01DX001 (ip), vehicle: other) is reported as 90 % of control, the T/C (dose: 200.0 mg/kg/injection, schedule: Q01DX001 (ip), vehicle: other) is reported as 90 % of control and the T/C (dose: 400.0 mg/kg/injection, schedule: Q01DX001 (ip), vehicle: other) is reported as 113 % of control.

For `CCCCN(CCCC)CCCNC(=O)OCC`, the T/C (dose: 25.0 mg/kg/injection, schedule: Q01DX009 (ip), vehicle: Klucel (hydroxypropylcellulose) (HPC)) was 100 % of control, the T/C (dose: 25.0 mg/kg/injection, schedule: Q04DX003 (ip), vehicle: Klucel (hydroxypropylcellulose) (HPC)) was 100 % of control and the T/C [4] was 110 % of control. The T/C (dose: 50.0 mg/kg/injection, schedule: Q04DX003 (ip), vehicle: Klucel (hydroxypropylcellulose) (HPC)) was 104 % of control, the T/C [5] was 115 % of control and the T/C (dose: 100.0 mg/kg/injection, schedule: Q04DX003 (ip), vehicle: Klucel (hydroxypropylcellulose) (HPC)) was 109 % of control.

With `COc1cc2c(c(OC)c1OC)-c1cc3c(cc1C(=O)[C@@H]1COC(=O)[C@@H]21)OCO3` the T/C (dose: 1.3 mg/kg/injection, schedule: Q01DX009 (ip), vehicle: saline) was 109 % of control, the T/C (dose: 2.0 mg/kg/injection, schedule: Q01DX009 (ip), vehicle: saline) was 95 % of control and the T/C (dose: 3.0 mg/kg/injection, schedule: Q01DX009 (ip), vehicle: saline) was 95 % of control. The T/C (dose: 5.3 mg/kg/injection, schedule: Q01DX009 (ip), vehicle: saline with Tween-80) was 100 % of control, the T/C (dose: 8.0 mg/kg/injection, schedule: Q01DX009 (ip), vehicle: saline with Tween-80) was 100 % of control and the T/C (dose: 12.0 mg/kg/injection, schedule: Q01DX009 (ip), vehicle: saline with Tween-80) was 95 % of control. For the same compound, the T/C (dose: 21.4 mg/kg/injection, schedule: Q01DX009 (ip), vehicle: saline) was 105 % of control, the T/C (dose: 32.0 mg/kg/injection, schedule: Q01DX009 (ip), vehicle: saline) was 110 % of control and the T/C (dose: 48.0 mg/kg/injection, schedule: Q01DX009 (ip), vehicle: saline) was 110 % of control.
